# From patent US5710173A, “Thienyl compounds for inhibition of cell proliferative disorders” (Sugen, Inc., priority 1995, dated 1998)
# Tests used:
# [1] = test system: human breast cancer cells; conditions: Sepp-Lorenzino et al., Abstract, 1994; cited from earlier work
# [2] = test system: IGF-1R protein tyrosine kinase; conditions: Sepp-Lorenzino et al., Abstract, 1994; cited from earlier work
# EGFR = target: T1, EGFR (Homo sapiens, UniProt P00533); assay: EGFR Whole Cell Kinase Assay; type: cell-based; conditions: EGFR/C7 NIH3T3 cells, EGF 25 nM; quantity and unit inferred; read-out: ELISA DATA, EGFR
# T1 construct: expressed in transfected cells; host or cells: NIH3T3 clone C7 (EGFR/C7)
# Description: The following examples illustrates the ability of the exemplary compounds to inhibit receptor tyrosine kinases, such as HER2 and/or EGFR. The following target cells were used for cellular kinase assays: NIH3T3 clone C7 (Honegger et al., supra) engineered to over-express human EGF receptor; NIH3T3 cells engineered to over-express a chimeric receptor containing the EGFR extracellular domain and the HER2 intracellular kinase domain; the human mammary carcinoma line BT474 (ATCC HTB2) expressing HER2; and the human glioblastoma line U1242 that expresses PDGFR-beta. Growth assays were carried out using human mammary epithelial SKBR3 (ATCC HTB30) cells (SKBR3 cells over-express HER2), SKOV3 (ATCC HTB77) human ovarian cancer cell line (SKOV3 cells also over-express HER2), A431 cells (A431 cells over-express EGFR) MCF7 human breast carcinoma cells, MCF7 cells overexpressing the HER2 kinase (MCF7-HER2), NIH3T3 cells, and NIH3T3 cells overexpressing the HER2 kinase (3T3-HER2.
# EGFR Whole Cell Kinase Assay
# EGFR kinase activity (EGFR-3T3 assay) in whole cells was measured as described below:
# 1) EGF Ligand: stock concentration=16.5 μM; EGF 201, TOYOBO, Co., Ltd. Japan.
# 2) 05-101 (UBI) (a monoclonal antibody recognizing an EGFR extracellular domain).
# 3) Anti-Phosphotyosine antibody (polyclonal) (made according to Fendley et al., Cancer Research 50:1550-1558, 1990). […]
# T1 sequence (P00533 25-1210): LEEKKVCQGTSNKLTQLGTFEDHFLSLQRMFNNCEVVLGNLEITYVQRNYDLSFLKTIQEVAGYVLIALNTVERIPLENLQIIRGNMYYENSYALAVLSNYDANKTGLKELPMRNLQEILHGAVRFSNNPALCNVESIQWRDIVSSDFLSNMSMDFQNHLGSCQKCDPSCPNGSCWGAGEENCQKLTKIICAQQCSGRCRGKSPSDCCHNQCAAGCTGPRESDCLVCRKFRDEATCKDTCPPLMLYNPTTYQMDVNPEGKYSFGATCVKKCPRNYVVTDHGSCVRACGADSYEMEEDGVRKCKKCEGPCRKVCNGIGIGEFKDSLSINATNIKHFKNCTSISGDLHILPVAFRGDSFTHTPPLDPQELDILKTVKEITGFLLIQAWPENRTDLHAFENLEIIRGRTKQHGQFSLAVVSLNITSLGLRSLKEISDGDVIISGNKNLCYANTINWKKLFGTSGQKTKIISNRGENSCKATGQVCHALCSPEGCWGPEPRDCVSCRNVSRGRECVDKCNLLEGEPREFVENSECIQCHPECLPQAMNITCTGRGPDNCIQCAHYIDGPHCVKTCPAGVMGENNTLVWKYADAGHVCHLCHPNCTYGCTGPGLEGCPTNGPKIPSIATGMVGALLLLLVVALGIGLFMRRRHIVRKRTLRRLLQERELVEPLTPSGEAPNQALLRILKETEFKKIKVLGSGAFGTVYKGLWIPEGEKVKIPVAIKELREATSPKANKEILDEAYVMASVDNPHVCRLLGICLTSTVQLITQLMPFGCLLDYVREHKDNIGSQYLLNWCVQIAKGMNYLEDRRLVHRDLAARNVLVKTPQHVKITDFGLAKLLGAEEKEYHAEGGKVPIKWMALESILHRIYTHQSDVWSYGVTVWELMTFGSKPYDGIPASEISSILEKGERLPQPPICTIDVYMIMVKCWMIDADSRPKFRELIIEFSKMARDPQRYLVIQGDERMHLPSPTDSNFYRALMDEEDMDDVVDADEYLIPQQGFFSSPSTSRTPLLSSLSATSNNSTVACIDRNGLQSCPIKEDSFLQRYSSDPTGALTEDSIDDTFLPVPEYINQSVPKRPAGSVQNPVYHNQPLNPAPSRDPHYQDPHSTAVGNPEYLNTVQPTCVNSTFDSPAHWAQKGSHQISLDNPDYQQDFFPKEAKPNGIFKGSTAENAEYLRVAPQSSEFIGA
Structure (SMILES),said to inhibit cellular proliferation in human breast cancer cells [1],said to inhibit the IGF-1R protein tyrosine kinase [2],IC50 (EGFR) [µM]
COC1C=CC=C(C)C(=O)NC2=CC(=O)C=C(C2=O)C(OC)C(C)CC(OC)C(OC)C(C)C=C(C)C1OC(N)=O (stereo not shown) [Herbimycin A],inhibit,inhibit,–
"N#C/C(=C\c1ccc([N+](=O)[O-])s1)S(=O)(=O)c1ccccn1 [Example G772, (E)-3-(2-nitrothien-5-yl)-2-[(pyridin-2-yl)sulfonyl]acrylonitrile]",–,–,> 100
"N#C/C(=C\c1ccc([N+](=O)[O-])s1)S(=O)(=O)c1ccccc1 [Example G771, (E)-3-(2-nitrothien-5-yl)-2-phenylsulfonylacrylonitrile]",–,–,> 100
